# Reference: PubChem BioAssay (NCI)
#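 Exposure lasted 48 hours, with cells grown in 96-well plates and compounds tested at five concentrations. Definition used: TGI = concentration required for complete inhibition of growth.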
# How the values were obtained:
# Assay in all cases: inhibition of tumour cell growth, NCI panel, 48 h
# SNB-19 CNS = test system: SNB-19 CNS
# SF-268 CNS = test system: SF-268 CNS
# IGROV1 ovarian = test system: IGROV1 ovarian
# HCT-15 colon = test system: HCT-15 colon
# NCI-H522 lung = test system: NCI-H522 lung
# SK-MEL-5 melanoma = test system: SK-MEL-5 melanoma
# HOP-92 NSCLC = test system: HOP-92 NSCLC
# T-47D breast = test system: T-47D breast
# HOP-62 NSCLC = test system: HOP-62 NSCLC
# MDA-MB-435 = test system: MDA-MB-435
# CAKI-1 renal = test system: CAKI-1 renal
# SK-MEL-2 melanoma = test system: SK-MEL-2 melanoma
# U251 CNS = test system: U251 CNS
# HCT-116 colon = test system: HCT-116 colon
# UO-31 renal = test system: UO-31 renal
# MOLT-4 leukemia = test system: MOLT-4 leukemia
# OVCAR-4 ovarian = test system: OVCAR-4 ovarian
# CCRF-CEM leukemia = test system: CCRF-CEM leukemia
# HCC-2998 colon = test system: HCC-2998 colon
# MDA-N = test system: MDA-N
# TK-10 renal = test system: TK-10 renal
# UACC-62 melanoma = test system: UACC-62 melanoma
# 786-0 renal = test system: 786-0 renal
# NCI-H23 lung = test system: NCI-H23 lung
# HS 578T breast = test system: HS 578T breast
# SK-OV-3 ovarian = test system: SK-OV-3 ovarian
# SNB-75 CNS = test system: SNB-75 CNS
# PC-3 prostate = test system: PC-3 prostate
# BT-549 breast = test system: BT-549 breast
# SN12C renal = test system: SN12C renal
# MDA-MB-231 breast = test system: MDA-MB-231 breast
# EKVX NSCLC = test system: EKVX NSCLC
# MALME-3M melanoma = test system: MALME-3M melanoma
# OVCAR-3 ovarian = test system: OVCAR-3 ovarian
# KM12 colon = test system: KM12 colon
# HT29 colon = test system: HT29 colon
# K-562 leukemia = test system: K-562 leukemia
# NCI-H460 lung = test system: NCI-H460 lung
# SW-620 colon = test system: SW-620 colon
# COLO 205 colon = test system: COLO 205 colon
# RXF 393 renal = test system: RXF 393 renal
# DU-145 prostate = test system: DU-145 prostate
# ACHN renal = test system: ACHN renal
# SF-295 CNS = test system: SF-295 CNS
# MCF7 breast = test system: MCF7 breast
# SR leukemia = test system: SR leukemia
# UACC-257 melanoma = test system: UACC-257 melanoma
# NCI/ADR-RES ovarian = test system: NCI/ADR-RES ovarian
# A498 renal = test system: A498 renal
# SK-MEL-28 melanoma = test system: SK-MEL-28 melanoma
# SF-539 CNS = test system: SF-539 CNS
# OVCAR-8 ovarian = test system: OVCAR-8 ovarian
# RPMI-8226 leukemia = test system: RPMI-8226 leukemia
# NCI-H226 lung = test system: NCI-H226 lung
# LOX IMVI melanoma = test system: LOX IMVI melanoma
# HL-60(TB) leukemia = test system: HL-60(TB) leukemia
# M14 melanoma = test system: M14 melanoma
# OVCAR-5 ovarian = test system: OVCAR-5 ovarian
# A549 NSCLC = test system: A549 NSCLC
# SNB-78 CNS = test system: SNB-78 CNS
# M19-MEL melanoma = test system: M19-MEL melanoma
# LXFL 529 NSCLC = test system: LXFL 529 NSCLC
# KM20L2 colon = test system: KM20L2 colon
# DMS 273 small cell lung = test system: DMS 273 small cell lung
smiles,measurement,setting,value
CC(=O)Nc1ccc(-c2nc3ccccc3s2)cc1Cl,TGI,SNB-19 CNS,> 100 µM
same,TGI,SF-268 CNS,> 100 µM
same,TGI,IGROV1 ovarian,> 100 µM
same,TGI,HCT-15 colon,> 100 µM
same,TGI,NCI-H522 lung,> 100 µM
same,TGI,SK-MEL-5 melanoma,> 100 µM
same,TGI,HOP-92 NSCLC,> 100 µM
same,TGI,T-47D breast,> 100 µM
same,TGI,HOP-62 NSCLC,> 100 µM
same,TGI,MDA-MB-435,> 100 µM
same,TGI,CAKI-1 renal,> 100 µM
same,TGI,SK-MEL-2 melanoma,> 100 µM
same,TGI,U251 CNS,> 100 µM
same,TGI,HCT-116 colon,> 100 µM
same,TGI,UO-31 renal,> 100 µM
same,TGI,MOLT-4 leukemia,> 100 µM
same,TGI,OVCAR-4 ovarian,> 100 µM
same,TGI,CCRF-CEM leukemia,> 100 µM
same,TGI,HCC-2998 colon,> 100 µM
same,TGI,MDA-N,> 100 µM
same,TGI,TK-10 renal,0.445 µM
same,TGI,UACC-62 melanoma,> 100 µM
same,TGI,786-0 renal,> 100 µM
same,TGI,NCI-H23 lung,> 100 µM
same,TGI,HS 578T breast,93.3 µM
same,TGI,SK-OV-3 ovarian,> 100 µM
same,TGI,SNB-75 CNS,> 100 µM
same,TGI,PC-3 prostate,> 100 µM
same,TGI,BT-549 breast,> 100 µM
same,TGI,SN12C renal,> 100 µM
same,TGI,MDA-MB-231 breast,> 100 µM
same,TGI,EKVX NSCLC,> 100 µM
same,TGI,MALME-3M melanoma,> 100 µM
same,TGI,OVCAR-3 ovarian,> 100 µM
same,TGI,KM12 colon,> 100 µM
same,TGI,HT29 colon,> 100 µM
same,TGI,K-562 leukemia,> 100 µM
same,TGI,NCI-H460 lung,> 100 µM
same,TGI,SW-620 colon,> 100 µM
same,TGI,COLO 205 colon,> 100 µM
same,TGI,RXF 393 renal,90.3 µM
same,TGI,DU-145 prostate,> 92.4 µM
same,TGI,ACHN renal,> 100 µM
same,TGI,SF-295 CNS,> 100 µM
same,TGI,MCF7 breast,> 100 µM
same,TGI,SR leukemia,> 100 µM
same,TGI,UACC-257 melanoma,> 100 µM
same,TGI,NCI/ADR-RES ovarian,> 100 µM
same,TGI,A498 renal,> 100 µM
same,TGI,SK-MEL-28 melanoma,> 100 µM
same,TGI,SF-539 CNS,> 100 µM
same,TGI,OVCAR-8 ovarian,> 100 µM
same,TGI,RPMI-8226 leukemia,> 100 µM
same,TGI,NCI-H226 lung,> 100 µM
same,TGI,LOX IMVI melanoma,> 100 µM
same,TGI,HL-60(TB) leukemia,> 100 µM
same,TGI,M14 melanoma,> 100 µM
same,TGI,OVCAR-5 ovarian,> 100 µM
same,TGI,A549 NSCLC,> 100 µM
C/C=C/C(=O)[C@@H](O)C(C)C,TGI,SNB-19 CNS,> 100 µM
same,TGI,SF-268 CNS,> 100 µM
same,TGI,IGROV1 ovarian,> 100 µM
same,TGI,HCT-15 colon,> 100 µM
same,TGI,NCI-H522 lung,> 100 µM
same,TGI,SK-MEL-5 melanoma,> 100 µM
same,TGI,HOP-92 NSCLC,> 100 µM
same,TGI,SNB-78 CNS,> 100 µM
same,TGI,CAKI-1 renal,> 100 µM
same,TGI,SK-MEL-2 melanoma,> 100 µM
same,TGI,M19-MEL melanoma,> 100 µM
same,TGI,U251 CNS,> 100 µM
same,TGI,HCT-116 colon,> 100 µM
same,TGI,UO-31 renal,> 100 µM
same,TGI,MOLT-4 leukemia,> 100 µM
same,TGI,LXFL 529 NSCLC,> 100 µM
same,TGI,OVCAR-4 ovarian,> 100 µM
same,TGI,HCC-2998 colon,> 100 µM
same,TGI,TK-10 renal,> 100 µM
same,TGI,UACC-62 melanoma,> 100 µM
same,TGI,786-0 renal,> 100 µM
same,TGI,NCI-H23 lung,> 100 µM
same,TGI,SK-OV-3 ovarian,> 100 µM
same,TGI,SNB-75 CNS,> 100 µM
same,TGI,KM20L2 colon,> 100 µM
same,TGI,SN12C renal,> 100 µM
same,TGI,EKVX NSCLC,> 100 µM
same,TGI,MALME-3M melanoma,> 100 µM
same,TGI,OVCAR-3 ovarian,> 100 µM
same,TGI,KM12 colon,> 100 µM
same,TGI,HT29 colon,> 100 µM
same,TGI,K-562 leukemia,> 100 µM
same,TGI,SW-620 colon,> 100 µM
same,TGI,COLO 205 colon,> 100 µM
same,TGI,RXF 393 renal,> 100 µM
same,TGI,ACHN renal,> 100 µM
same,TGI,SF-295 CNS,> 100 µM
same,TGI,SR leukemia,> 100 µM
same,TGI,UACC-257 melanoma,> 100 µM
same,TGI,SK-MEL-28 melanoma,> 100 µM
same,TGI,DMS 273 small cell lung,> 100 µM
same,TGI,OVCAR-8 ovarian,> 100 µM
same,TGI,RPMI-8226 leukemia,> 100 µM
same,TGI,NCI-H226 lung,> 100 µM
same,TGI,OVCAR-5 ovarian,> 100 µM
same,TGI,A549 NSCLC,> 100 µM
